Assay results reported in patent US9617225B2 (VIROSTATICS SRL, priority 2012, dated 2017).
Read-outs that look alike come from different tables or passages of the source.

Experiments:
[1] = test system: Primary T cells; assay: Cytotoxicity, viability by flow cytometry; assay type: cell-based
Protocol: Primary T cells are cultured and treated with different concentrations of the test compound. Viability is analysed by measuring through flow cytometry based techniques the percentage of viable cells, compared to untreated control=100%).

[2] = test system: laboratory strain of HIV-1; assay: Antiviral Activity Against HIV (AV), p24 in infected activated primary T cells; assay type: cell-based; conditions: summary in words
Protocol: Antiviral Activity Against HIV (AV)
Activated primary T cells are infected with a laboratory strain of HIV-1, then cultured and exposed to different concentrations of the test compounds. HIV replication is analysed by measuring the viral protein p24 and expressed as percentage of untreated control. Inhibition of viral replication (AV) is then calculated (AV=100 minus the % p24 compared to control, AV of control=0%). Inhibitory concentration 50% for antiviral activity (AV50) is calculated.

[3] = biological target: human CDK9/CyclinT kinase complex (Homo sapiens (Human), UniProt P50750); assay: In Vitro CDK9/CyclinT Assay (IMAP fluorescent polarization); assay type: biochemical
Chain of human CDK9/CyclinT kinase complex (P50750 whole entry): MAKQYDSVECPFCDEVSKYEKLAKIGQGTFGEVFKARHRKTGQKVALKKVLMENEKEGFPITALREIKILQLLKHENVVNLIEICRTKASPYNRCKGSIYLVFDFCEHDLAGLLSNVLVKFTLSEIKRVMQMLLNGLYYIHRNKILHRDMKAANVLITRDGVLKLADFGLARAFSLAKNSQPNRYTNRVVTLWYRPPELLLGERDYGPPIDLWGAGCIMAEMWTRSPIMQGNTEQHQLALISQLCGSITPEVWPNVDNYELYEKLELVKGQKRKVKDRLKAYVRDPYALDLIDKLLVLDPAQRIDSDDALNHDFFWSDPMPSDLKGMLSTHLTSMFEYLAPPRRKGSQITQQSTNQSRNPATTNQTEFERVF
Chain of human CDK9/CyclinT kinase complex (O60563 whole entry partner): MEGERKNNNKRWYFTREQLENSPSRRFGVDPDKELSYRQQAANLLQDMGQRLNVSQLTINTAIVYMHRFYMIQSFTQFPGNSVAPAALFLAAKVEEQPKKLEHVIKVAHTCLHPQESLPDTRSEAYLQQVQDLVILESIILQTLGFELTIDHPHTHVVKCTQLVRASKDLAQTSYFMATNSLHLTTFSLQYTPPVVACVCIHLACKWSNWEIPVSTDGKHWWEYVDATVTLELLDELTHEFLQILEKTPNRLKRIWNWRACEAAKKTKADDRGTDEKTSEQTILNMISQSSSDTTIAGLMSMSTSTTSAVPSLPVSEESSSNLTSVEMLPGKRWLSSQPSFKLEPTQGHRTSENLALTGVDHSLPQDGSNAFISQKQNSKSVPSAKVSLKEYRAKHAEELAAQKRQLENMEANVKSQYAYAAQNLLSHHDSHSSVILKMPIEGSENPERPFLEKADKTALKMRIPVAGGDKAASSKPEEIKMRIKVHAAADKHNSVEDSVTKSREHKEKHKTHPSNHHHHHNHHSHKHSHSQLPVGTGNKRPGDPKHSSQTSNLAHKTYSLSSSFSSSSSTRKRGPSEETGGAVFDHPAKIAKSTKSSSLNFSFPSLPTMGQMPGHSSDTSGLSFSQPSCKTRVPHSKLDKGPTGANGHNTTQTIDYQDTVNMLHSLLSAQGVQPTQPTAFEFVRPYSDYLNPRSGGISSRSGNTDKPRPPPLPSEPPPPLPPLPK
Protocol: In Vitro CDK9/CyclinT Assay
The activity of the compounds described in the present invention can be determined by measuring the phosphorylation of a fluorescently-labeled peptide by human CDK9/CyclinT kinase complex by fluorescent polarization using a commercially available IMAP Screening Express Assay Kit (Molecular devices).
Test compounds were diluted in 100% DMSO to 5 mM stock concentration, then further dilutions were made in H2O or 100% DMSO to desirable concentrations. Each reaction consisted of 5 nM enzyme: CDK9/CyclinT (Proqinase cat#0371-0345-1), 400 nM TAMRA-Rbtide (synthetic 15-mer peptide derived from human retinoblastoma tumor suppressor protein labeled with TAMRA dye, Genecust Europe), 12 μM ATP (=Kmapp, Sigma-Aldrich) and kinase buffer: 20 mM MOPS pH 7 (Sigma-Aldrich), 1 mM DTT (Sigma-Aldrich), 10 mM MgCl2 (Sigma-Aldrich), 0.01% Tween 20 (Sigma-Aldrich).
For each reaction, 4 or 6 μl containing TAMRA-Rbtide, ATP and kianse buffer were combined with 2 μl diluted compound in H2O or 0.028 μl compound in 100% DMSO. The kinase reaction was started by the addition of 2 μl diluted enzyme. The reaction was allowed to run for 1 hour at room temperature. The reaction was stopped by adding 15 μl IMAP beads (1:400 beads in progressive (100% buffer A) 1× buffer).

[4] = Table 4, toxic dose 50%, viable cells

Compound	TD50 [1]	IC50 ([3]; Table 1)	also measured
COc1cc(F)c(Nc2cc(-c3ccc(F)cc3OC)ncn2)cc1C(N)=O [Example 146, 4-Fluoro-5-[6-(4-fluoro-2-methoxy-phenyl)-pyrimidin-4-ylamino]-2-methoxy-benzamide]	10 µM	< 1 µM	antiviral and antiproliferative activity and cytotoxicity profile [2]: good antiviral and antiproliferative activity and a good cytotoxicity profile
COc1ccc(Nc2cc(-c3cc(F)c(F)cc3OC)ncn2)cc1N [Example 83, N^1-[6-(4,5-Difluoro-2-methoxy-phenyl)-pyrimidin-4-yl]-4-methoxy-benzene-1,3-diamine]	12 µM	< 1 µM	antiviral and antiproliferative activity and cytotoxicity profile [2]: good antiviral and antiproliferative activity and a good cytotoxicity profile
COc1ccc(Nc2cc(-c3ccccc3OC)ncn2)cc1CNc1ccccc1 [Example 34, N-(4-Methoxy-3-((phenylamino)methyl)phenyl)-6-(2-methoxyphenyl)pyrimidin-4-amine]	>5 µM	–	IC50 [3]: < 10 µM
COc1ccccc1-c1cc(Nc2ccc(Cl)c(C(N)=O)c2)ncn1 [Example 44, 2-Chloro-5-(6-(2-methoxyphenyl)pyrimidin-4-ylamino)benzamide]	>5 µM	–	IC50 [3]: < 1 µM
COc1ccc(Nc2cc(-c3ccccc3OCc3ccccc3)ncn2)cc1N [Example 71, N^1-[6-(2-Benzyloxy-phenyl)-pyrimidin-4-yl]-4-methoxy-benzene-1,3-diamine]	>10 µM	< 1 µM	IC50 ([3]; Table 5): < 1 µM
COc1ccc(F)cc1-c1cc(Nc2cc(F)c(OC)c(C(N)=O)c2)ncn1 [Example 140, 3-Fluoro-5-[6-(5-fluoro-2-methoxy-phenyl)-pyrimidin-4-ylamino]-2-methoxy-benzamide]	>20 µM	< 10 µM	–
COc1ccc(Nc2cc(-c3ccc(F)cc3OC)ncn2)cc1NC(C)=O [Example 117, N-{5-[6-(4-Fluoro-2-methoxy-phenyl)-pyrimidin-4-ylamino]-2-methoxy-phenyl}-acetamide]	–	–	TD50 [1, 4]: >2 µM; IC50 [3]: < 1 µM
CCOc1cc(F)ccc1-c1cc(Nc2cc(N)c(OC)c(F)c2)ncn1 [Example 89, N^1-[6-(2-Ethoxy-4-fluoro-phenyl)-pyrimidin-4-yl]-5-fluoro-4-methoxy-benzene-1,3-diamine]	>20 µM	< 1 µM	–
COc1ccccc1-c1cc(Nc2ccc(Cl)c(C(=O)NN)c2)ncn1 [Example 7, 2-Chloro-5-(6-(2-methoxyphenyl)pyrimidin-4-ylamino)benzohydrazide]	>5 µM	< 0.1 µM	–
COc1ccc(Nc2cc(-c3ccccc3OC)ncn2)cc1NC(=O)OCC(Cl)(Cl)Cl [Example 27, 2,2,2-Trichloroethyl 2-methoxy-5-(6-(2-methoxyphenyl)pyrimidin-4-ylamino)phenylcarbamate]	–	–	TD50 [1, 4]: >0.5 µM; IC50 [3]: < 10 µM
COC(=O)c1ccc(Nc2cc(-c3ccccc3OC)ncn2)cc1OC [Example 133, 2-Methoxy-4-[6-(2-methoxy-phenyl)-pyrimidin-4-ylamino]-benzoic acid methyl ester]	>10 µM	< 1 µM	IC50 ([3]; Table 5): < 1 µM
COc1ccccc1-c1cc(Nc2ccc(Cl)c(C(=O)N3CCCC3)c2)ncn1 [Example 15, (2-Chloro-5-(6-(2-methoxyphenyl)pyrimidin-4-ylamino)phenyl)(pyrrolidin-1-yl)methanone]	>0.5 µM	–	IC50 [3]: < 1 µM
CCOc1ccc(F)cc1-c1cc(Nc2cc(C(N)=O)c(OC)cc2F)ncn1 [Example 148, 5-[6-(2-Ethoxy-5-fluoro-phenyl)-pyrimidin-4-ylamino]-4-fluoro-2-methoxy-benzamide]	1 µM	< 10 µM	–
COc1ccccc1-c1cc(Nc2cc(N)c(OC)c(F)c2)ncn1 [Example 88, 5-Fluoro-4-methoxy-N^1-[6-(2-methoxy-phenyl)-pyrimidin-4-yl]-benzene-1,3-diamine]	>20 µM	–	IC50 [3]: < 1 µM
COc1ccccc1-c1cc(Nc2ccc(C(N)=O)c(Cl)c2)ncn1 [Example 132, 2-Chloro-4-[6-(2-methoxy-phenyl)-pyrimidin-4-ylamino]-benzamide]	>10 µM	< 1 µM	IC50 ([3]; Table 5): < 1 µM
COc1cccc(-c2cc(Nc3ccc(OC)c(N)c3)ncn2)c1 [Example 68, 4-Methoxy-N^1-[6-(3-methoxy-phenyl)-pyrimidin-4-yl]-benzene-1,3-diamine]	>10 µM	> 10 µM	–

Compound	TD50 [1]	IC50 ([3]; Table 1)	also measured
CC[C@H](CO)Nc1nc(NCc2ccccc2)c2ncn(C(C)C)c2n1 [Roscovitine, reference compound]	–	–	TD50 [1, 4]: 8 µM; anti-HIV and cytotoxicity profile [2]: poor
COC(=O)Nc1cc(Nc2cc(-c3ccc(F)cc3OC)ncn2)ccc1OC [Example 118, {5-[6-(4-Fluoro-2-methoxy-phenyl)-pyrimidin-4-ylamino]-2-methoxy-phenyl}-carbamic acid methyl ester]	–	< 1 µM	TD50 [1, 4]: >2 µM; TD50 ([1]; Table 5): >2 µM; IC50 ([3]; Table 5): < 1 µM
COc1ccc(-c2cc(Nc3ccc(OC)c(N)c3)ncn2)cc1 [Example 66, 4-Methoxy-N^1-[6-(4-methoxy-phenyl)-pyrimidin-4-yl]-benzene-1,3-diamine]	>10 µM	–	IC50 [3]: > 10 µM
COc1ccc(Nc2cc(-c3ccccc3OC)ncn2)cc1C(=O)NCc1ccccc1 [Example 23, N-Benzyl-2-methoxy-5-(6-(2-methoxyphenyl)pyrimidin-4-ylamino)benzamide]	>0.5 µM	< 1 µM	–
CCOC(=O)c1cc(Nc2cc(-c3ccccc3OC)ncn2)ccc1N1CCOCC1 [Example 18, Ethyl 5-(6-(2-methoxyphenyl)pyrimidin-4-ylamino)-2-morpholinobenzoate]	>0.5 µM	< 1 µM	–
COc1cc(F)c(Nc2cc(-c3ccccc3OC)ncn2)cc1N [Example 92, 4-Fluoro-6-methoxy-N^3-[6-(2-methoxy-phenyl)-pyrimidin-4-yl]-benzene-1,3-diamine]	>20 µM	< 10 µM	–
COc1ccccc1-c1cc(Nc2ccc(N3CCN(C)CC3)c(Cn3cnc4ccccc43)c2)ncn1 [Example 2, N-(3-((1H-Benzo[d]imidazol-1-yl)methyl)-4-(4-methylpiperazin-1-yl)phenyl)-6-(2-methoxyphenyl)pyrimidin-4-amine]	0.4 µM	< 0.1 µM	–
COc1ccc(Nc2cc(-c3ccccc3OC)ncn2)cc1C(=O)NCc1ccncc1 [Example 28, 2-Methoxy-5-(6-(2-methoxyphenyl)pyrimidin-4-ylamino)-N-(pyridin-4-ylmethyl)benzamide]	>0.5 µM	–	IC50 [3]: < 1 µM
COc1ccc(Nc2cc(-c3ccccc3OC)ncn2)cc1OCCN1CCOCC1 [Example 8, N-(4-Methoxy-3-(2-morpholinoethoxy)phenyl)-6-(2-methoxyphenyl)pyrimidin-4-amine]	–	< 1 µM	TD50 [1, 4]: >1.5 µM
COc1ccc(Nc2cc(-c3ccccc3OC)ncn2)cc1C(=O)NN [Example 33, 2-Methoxy-5-(6-(2-methoxyphenyl)pyrimidin-4-ylamino)benzohydrazide]	>5 µM	< 0.1 µM	–
COc1ccccc1-c1cc(Nc2cc(F)c(OC)c(C(N)=O)c2)ncn1 [Example 137, 3-Fluoro-2-methoxy-5-[6-(2-methoxy-phenyl)-pyrimidin-4-ylamino]-benzamide]	>2 µM	< 10 µM	–
CCOc1ccc(Nc2cc(-c3ccccc3OC)ncn2)cc1N [Example 101, 4-Ethoxy-N^1-[6-(2-methoxy-phenyl)-pyrimidin-4-yl]-benzene-1,3-diamine]	12 µM	–	IC50 [3]: < 1 µM
CN1CC[C@H](c2c(O)cc(O)c3c(=O)cc(-c4ccccc4Cl)oc23)[C@H](O)C1 [Flavopiridol, reference compound]	0.1 µM	–	anti-HIV and cytotoxicity profile [2]: poor
COc1ccc(Nc2cc(-c3ccccc3OC)ncn2)cc1CNS(C)(=O)=O [Example 4, N-(2-Methoxy-5-(6-(2-methoxyphenyl)pyrimidin-4-ylamino)benzyl)methanesulfonamide]	2.1 µM	< 0.1 µM	–
COc1ccc(Nc2cc(-c3ccccc3OC)ncn2)cc1F [Example 22, N-(3-Fluoro-4-methoxyphenyl)-6-(2-methoxyphenyl)pyrimidin-4-amine]	>0.5 µM	< 1 µM	–
COc1ccccc1-c1cc(Nc2ccc(N3CCN(C)CC3)c(S(N)(=O)=O)c2)ncn1 [Example 38, 5-(6-(2-Methoxyphenyl)pyrimidin-4-ylamino)-2-(4-methylpiperazin-1-yl)benzenesulfonamide]	<1.5 µM	< 0.1 µM	–
